{
  "source": "paper PMC11067372",
  "about": "“Evaluation of the antiplasmodial efficacy of synthetic 2,5-diphenyloxazole analogs of compounds naturally derived from Oxytropis lanata” (International Journal for Parasitology: Drugs and Drug …, 2024)",
  "key": {"P. falciparum 3D7 [1]": {"tested_on": "P. falciparum 3D7", "assay": "IC50 speed assay (24, 48, 72 h)", "format": "cell-based, Plasmodium falciparum", "settings": "P. falciparum 3D7; for Speed of action (IC50 speed assay): IC50 at 24, 48, 72 h compared; for IC50: Plasmodium falciparum", "experimental": "(§1) The D-sorbitol method (CAS: 50-70-4, Wako, Osaka, Japan) was employed to synchronize parasites, resulting in the attainment of ≥90% ring-stage parasites. These synchronized parasites were then utilized for the experiments within a 2-h window. The assay was performed as follows. First, 50 μL of synchronized parasites with 0.5% parasitemia and 2% hematocrit were added to individual wells of a 96-well plate. Then, 50 μL of the test compounds was introduced to each well. […] Wells containing only test compounds and erythrocytes were included for background correction. […] After the designated incubation time, 100 μL of lysis buffer containing 0.02% (v/v) SYBR Green I was added to each well, the contents of the well were mixed by pipetting, and the plate was incubated in the dark at room temperature for 2 h. […] This assay was repeated four times at each concentration, and the resulting inhibitory values represent the average from three independent trials."}, "P. falciparum 3D7 [2]": {"tested_on": "P. falciparum 3D7", "assay": "Stage-specific microscopy examination (ring, trophozoite, schizont)", "format": "cell-based, Plasmodium falciparum", "settings": "for Inhibition of the life cycle at 10- and 1-fold IC50: 24 h; for Parasite morphology after 24 h treatment: ring, trophozoite, schizont stages, artemisinin and chloroquine at all concentrations, Compounds 31 and 32 at 100 times IC50", "experimental": "(§2) To ensure uniformity, the parasites underwent a rigorous synchronization process using a two-step sorbitol treatment procedure. This synchronized parasite population was harnessed within a 2-h window for the ring stage, 8–10 h for the trophozoite stage, and 24–26 h for the schizont stage. Subsequent to sorbitol treatment, early trophozoites could be obtained within 6–8 h after the initial sorbitol treatment (within 20 h of development), while early schizonts could be obtained after an additional 16 h of incubation (within 36 h of development). Beyond 36 h, the schizonts mature, causing the rupture of red blood cells (RBCs) and the consequent release of merozoites, which promptly infect new RBCs.\nThe negative control group consisted of cultures treated solely with complete medium and was designated the no treatment (NT) group. This analysis was repeated three times at each concentration. Following a 24-h incubation period, the culture in a 96-well plate was centrifuged at 1300 g for 5 min to settle down the iRBC; then, the supernatants were removed, and the iRBCs were washed with fresh media at the same volume as the initial culture. The centrifugation and washing were repeated 3 times, allowing the compound to be diluted by approximately 1000 times. Subsequently, thin blood smears from each treatment group were prepared using 1 μL of settled iRBCs. The proportion of parasites affected by the drug, including those with both abnormal and retained morphologies, was calculated by examining 100 parasites and counting the number displaying irregular development. Subsequently, the number of abnormal parasites was divided by the total count and then multiplied by 100 to obtain a percentage. The parameters used to define normal and abnormal morphologies can be found in Table S3 and Fig. S1."}, "P. falciparum 3D7 [3]": {"tested_on": "P. falciparum 3D7", "assay": "Stage-specific assay on ring and schizont stages (SYBR Green I, 24 h)", "format": "cell-based, Plasmodium falciparum", "settings": "eight concentrations from 100-fold IC50", "experimental": "as §2\nWells containing only the test compounds and erythrocytes were included to correct for background activity. The 96-well plates were incubated for 24 h at 37 °C in an atmosphere of 5% CO2 and 5% O2. The growth of P. falciparum 3D7 was detected using a SYBR Green I-based fluorescence assay."}, "P. yoelii 17XNL": {"tested_on": "P. yoelii 17XNL", "format": "in vivo", "settings": "C57BL/6 mice, P. yoelii 17XNL; for Parasitemia compared to the untreated control group: 20 mg/kg daily over 10 days; for Body weight or hematocrit levels / Mortality / Peak of parasitemia, trial 1 / Peak of parasitemia, trial 2: 20 mg/kg i.p. once daily for ten days; for Peak of parasitemia, trial 1: untreated 21.7%; for Peak of parasitemia, trial 2: untreated 28.3%", "experimental": "Male C57BL/6 mice, aged eight weeks, were obtained from Japan CLEA (Tokyo, Japan) and housed with six per cage in each group. These mice were kept under conditions of 24 °C, 50% relative humidity, and a light-dark cycle of 8 a.m. to 8 p.m. Access to drinking water and food (CLEA Rodent Diet CE-2; Japan CLEA, Tokyo, Japan) was unrestricted. Prior to experimentation, P. yoelii 17XNL was recovered from cryopreserved erythrocyte stocks via passage in mice. […]. Parasitemia levels were evaluated […] by collecting 2 μL of blood from the mouse tail for thin blood smear preparation. Treatment was initiated upon reaching a parasitemia level of 1%. […]. Parasitemia in infected mice was observed daily by preparing Giemsa-stained thin blood smears (up to 30 dpi). Hematocrit levels were measured every other day using a Celltac-α MEK-6550 (Nihon Kohden, Tokyo, Japan), with 10 μL of blood collected from the mouse tail for each assessment. The animals were handled and treated in accordance with the Guide for the Care and Use of Laboratory Animals by the Ministry of Education, Culture, Sports, Science, and Technology, Japan. Ethical permission for the animal experiment protocols was secured under permit numbers 21–35 and 23–90 from the ethical committee of Obihiro University of Agriculture and Veterinary Medicine.\nThe median point within this range was selected to maintain a balance between efficacy and safety. Furthermore, a modified Peter's suppression test was utilized to assess the efficacy of antimalarial drugs ([Ager, 1984]; [Peters et al., 1975]). The treatment and observation period were initially set for 4 days. […] […]. […] These findings highlight the effect of the 20 mg/kg/day dosage of Compounds 31 and 32 in reducing parasitemia without causing side effects."}, "P. falciparum K1": {"tested_on": "P. falciparum K1", "assay": "In vitro inhibition of P. falciparum K1 (SYBR Green I-based fluorescence assay)", "format": "cell-based", "settings": "Plasmodium falciparum; multidrug-resistant strain K1; 72 h incubation; average ± SD, three independent experiments; read-out: IC50 P. falciparum K1", "experimental": "The cultures were maintained in an incubator under specific conditions: 37 °C under 5% CO2 and 5% O2.\nas §1\nThe IC50 or CC50 values were determined from three independent experiments by plotting the logarithmic concentration of the compound against the percent parasite inhibition or cell growth inhibition, respectively. Nonlinear regression analysis was conducted using GraphPad Prism 10 (GraphPad Software, Inc., La Jolla, CA, USA). Comparisons between groups were evaluated using either one-way or two-way ANOVA followed by Tukey's or Fisher's multiple comparisons tests. […] The meaning of each symbol is specified in the corresponding figure legend alongside the name of the employed test."}, "Hemolysis rate": {"assay": "Hemolysis rate", "format": "cell-based", "settings": "erythrocytes (red blood cells)"}, "[4]": {"assay": "In vitro toxicity to human cells (cell viability assay)", "format": "cell-based", "settings": "human foreskin fibroblasts (HFFs), average ± SD, three independent experiments", "experimental": "HFF cells are selected for cytotoxicity testing in this study, providing a physiologically relevant model for the evaluation of drug interactions with human cells. […] This designation makes them a suitable model for the investigation of cellular processes and their sensitivity to toxic substances, which is crucial for the early identification of potential adverse effects of drugs during the development process.\nThe IC50 or CC50 values were determined from three independent experiments by plotting the logarithmic concentration of the compound against the percent parasite inhibition or cell growth inhibition, respectively. Nonlinear regression analysis was conducted using GraphPad Prism 10 (GraphPad Software, Inc., La Jolla, CA, USA). Comparisons between groups were evaluated using either one-way or two-way ANOVA followed by Tukey's or Fisher's multiple comparisons tests. A p-value of <0.05 was considered to indicate statistical significance and is denoted by an asterisk or a symbol. The meaning of each symbol is specified in the corresponding figure legend alongside the name of the employed test."}, "[5]": {"settings": "24 h incubation, read-out: IC50 24 h"}, "[6]": {"settings": "48 h incubation, read-out: IC50 48 h"}, "[7]": {"settings": "72 h incubation, read-out: IC50 72 h"}},
  "note": "Where two headings read alike, the source gives them in different places.",
  "data": [
    {"smiles": "COc1cccc(-c2ncc(-c3ccccc3O)o2)c1OC", "note": "[Compound 31, 2-(2′,3′-dimethoxyphenyl)-5-(2″-hydroxyphenyl)oxazole]", "values": [
      {"measurement": "Speed of action (IC50 speed assay)", "setting": "P. falciparum 3D7 [1]", "result": "slow-acting"},
      {"measurement": "IC50", "setting": "P. falciparum 3D7 [1]; [5]", "result": "45.2 ± 10.6", "unit": "µM"},
      {"measurement": "IC50", "setting": "P. falciparum 3D7 [1]; [6]", "result": "18.8 ± 1.86", "unit": "µM"},
      {"measurement": "IC50", "setting": "P. falciparum 3D7 [1]; [7]", "result": "8.37 ± 1.28", "unit": "µM"},
      {"measurement": "Inhibition of the life cycle at 10- and 1-fold IC50", "setting": "P. falciparum 3D7 [2]", "result": "only partial inhibition of the life cycle"},
      {"measurement": "Parasite morphology after 24 h treatment", "setting": "P. falciparum 3D7 [2]", "result": "abnormal phenotype of ring-stage parasites"},
      {"measurement": "Stage specificity (ring and schizont stages)", "setting": "P. falciparum 3D7 [3]", "result": "classic slow-acting profile, which only gains significant activity at elevated concentrations"},
      {"measurement": "Parasitemia compared to the untreated control group", "setting": "P. yoelii 17XNL", "result": "significant reduction in parasitemia"},
      {"measurement": "Body weight or hematocrit levels", "setting": "P. yoelii 17XNL", "result": "nor were reductions in body weight or hematocrit levels observed"},
      {"measurement": "Mortality", "setting": "P. yoelii 17XNL", "result": "no instances of mortality"},
      {"measurement": "Peak of parasitemia, trial 1", "setting": "P. yoelii 17XNL", "result": 12.7, "unit": "%"},
      {"measurement": "Peak of parasitemia, trial 2", "setting": "P. yoelii 17XNL", "result": 15.8, "unit": "%"},
      {"measurement": "IC50", "setting": "P. falciparum K1", "result": "2.66 ± 1.15", "unit": "µM"},
      {"measurement": "hemolysis at 1000 µM", "setting": "Hemolysis rate", "result": "< 3", "unit": "%"},
      {"measurement": "CC50", "setting": "[4]", "result": "> 336", "unit": "µM"}
    ]},
    {"smiles": "COc1cccc(-c2ncc(-c3ccccc3OCc3ccccc3)o2)c1OC", "note": "[Compound 32, 2-(2′,3′-dimethoxyphenyl)-5-(2″-benzyloxyphenyl)oxazole]", "values": [
      {"measurement": "Speed of action (IC50 speed assay)", "setting": "P. falciparum 3D7 [1]", "result": "slow-acting"},
      {"measurement": "IC50", "setting": "P. falciparum 3D7 [1]; [5]", "result": "31.2 ± 4.13", "unit": "µM"},
      {"measurement": "IC50", "setting": "P. falciparum 3D7 [1]; [6]", "result": "33.4 ± 2.67", "unit": "µM"},
      {"measurement": "IC50", "setting": "P. falciparum 3D7 [1]; [7]", "result": "6.25 ± 1.39", "unit": "µM"},
      {"measurement": "Inhibition of the life cycle at 10- and 1-fold IC50", "setting": "P. falciparum 3D7 [2]", "result": "only partial inhibition of the life cycle"},
      {"measurement": "Parasite morphology after 24 h treatment", "setting": "P. falciparum 3D7 [2]", "result": "abnormal phenotype of ring-stage parasites"},
      {"measurement": "Stage specificity (ring and schizont stages)", "setting": "P. falciparum 3D7 [3]", "result": "effect on the ring and schizont stages is comparable to those positive controls"},
      {"measurement": "Parasitemia compared to the untreated control group", "setting": "P. yoelii 17XNL", "result": "significant reduction in parasitemia"},
      {"measurement": "Body weight or hematocrit levels", "setting": "P. yoelii 17XNL", "result": "nor were reductions in body weight or hematocrit levels observed"},
      {"measurement": "Mortality", "setting": "P. yoelii 17XNL", "result": "no instances of mortality"},
      {"measurement": "Peak of parasitemia, trial 1", "setting": "P. yoelii 17XNL", "result": 12.7, "unit": "%"},
      {"measurement": "Peak of parasitemia, trial 2", "setting": "P. yoelii 17XNL", "result": 14.0, "unit": "%"},
      {"measurement": "IC50", "setting": "P. falciparum K1", "result": "4.37 ± 1.7", "unit": "µM"},
      {"measurement": "hemolysis at 1000 µM", "setting": "Hemolysis rate", "result": "< 3", "unit": "%"},
      {"measurement": "CC50", "setting": "[4]", "result": "> 258", "unit": "µM"}
    ]}
  ]
}
